Consider four molecules from patent publication US8153787B2 (priority 2005, dated 2012).

The subject of data set [1] is Human Cytomegalovirus (HCMV). Briefly: microbe, parasite or virus in culture. Format: cell-based.
Data set [2] in a line: in vitro. The settings on record: human, […].
The subject of data set [3] is herpes simplex virus type 1 (HSV-1). The data set is described as follows: microbe, parasite or virus in culture. The settings on record: Human alphaherpesvirus 1, HEL, read-out: EC50 HSV-1 (Kos strain). Type of data set: cell-based.
The next data set concerns Orf virus (NZ2). Briefly: microbe, parasite or virus in culture. Format: cell-based. The settings on record: Orf virus, HEL, read-out: EC50 Orf virus NZ2.
The test system of data set [4] is primate polyomavirus (SV40). Briefly: microbe, parasite or virus in culture. Type of data set: cell-based, simian polyomavirus SV40. The settings on record: for EC50: Polyomavirus sp., BSC-1, in Primates.
The test system of the next data set is Vaccinia virus. The data set is described as follows: organism not typed. The settings on record: HEL. Type of data set: cell-based.
Data set [5] in a line: in vitro. The settings on record: mouse.
In a further data set the test system is murine polyomavirus. Briefly: microbe, parasite or virus in culture. The settings on record: for EC50: Alphapolyomavirus muris, UC1, UC1B. Format: cell-based.
Data set [6] in a line: in vitro. The settings on record: African green monkey.
Another data set has as its system Cowpox virus (Brighton). Briefly: microbe, parasite or virus in culture. The settings on record: Cowpox virus, HEL, read-out: EC50 Cowpox virus Brighton. Type of data set: cell-based.
For data set [7], the system named is Varicella-Zoster Virus (VZV). Briefly: microbe, parasite or virus in culture. Format: cell-based. The settings on record: Human alphaherpesvirus 3, HEL.
The subject of data set [8] is herpes simplex virus type 2 (HSV-2). Briefly: microbe, parasite or virus in culture. Type of data set: cell-based. The settings on record: Human alphaherpesvirus 2, HEL, read-out: EC50 HSV-2 (G strain).
The mark [9] stands for this setting: Human betaherpesvirus 5, AD169, HEL, read-out: EC50 HCMV AD-169 strain (HEL cells).
The mark [10] stands for this setting: Human betaherpesvirus 5, HEL, read-out: EC50 HCMV Davis strain (HEL cells).
Setting [11] is: read-out: EC50 Vaccinia Virus Lister.
[12] abbreviates: Orthopoxvirus vaccinia, read-out: EC50 Vaccinia Virus Copenhagen.
The mark [13] stands for this setting: Orthopoxvirus vaccinia, read-out: EC50 Vaccinia Virus Lederle.
Where [14] appears, read: Orthopoxvirus vaccinia, read-out: EC50 Vaccinia Virus WR.
[15] abbreviates: read-out: EC50 VZV 07/1 strain (HEL cells).
[16] abbreviates: read-out: EC50 VZV OKA strain (HEL cells).

Values after ≈ are worked out from the molar mass of the structure shown. Like-named read-outs stand apart in the source and are kept apart here. Where only a bound is given, the exact number is not on record here.

Consider `Nc1ncn(C[C@H]2COP(=O)(O)CO2)c(=O)n1` [Compound 11, 1-{[(5S)-2-Hydroxy-2-oxido-1,4,2-dioxaphosphinan-5-yl]methyl}-5-azacytosine], for which the EC50 stood at 0.093 µg/mL (≈ 0.355 µM) in data set [1] (setting [9]); 0.061 µg/mL (≈ 0.233 µM) in data set [1] (setting [10]); 0.017 µg/mL (≈ 0.0648 µM) in data set [3]; 0.09 µg/mL (≈ 0.343 µM) in the data set with Orf virus (NZ2); 4.6 µg/mL (≈ 17.5 µM) in data set [4] (read-out: antiviral activity (EC50) SV40 PML-1 strain EK); 5.05 µg/mL (≈ 19.3 µM) in [4] (read-out: antiviral activity (EC50) SV40 PML-2 strain DAR). The EC50 in data set [4] (read-out: antiviral activity (EC50) SV40 strain A2895) turned out to be 4.39 µg/mL (≈ 16.7 µM); in the data set on Vaccinia virus (setting [11]), 1.38 µg/mL (≈ 5.26 µM); in the data set with Vaccinia virus (setting [12]) it was 1.76 µg/mL (≈ 6.71 µM); with Vaccinia virus (setting [13]), 3.1 µg/mL (≈ 11.8 µM); in the data set on Vaccinia virus (setting [14]) it was 2.08 µg/mL (≈ 7.93 µM); with murine polyomavirus (read-out: antiviral activity (EC50) 2PTA2), 4.39 µg/mL (≈ 16.7 µM). In addition, the EC50 in the data set with murine polyomavirus (read-out: antiviral activity (EC50) LID-1) worked out at 8.05 µg/mL (≈ 30.7 µM); in the data set on murine polyomavirus (read-out: antiviral activity (EC50) MN/RDE Toronto) it was 3.43 µg/mL (≈ 13.1 µM); in the data set with murine polyomavirus (read-out: antiviral activity (EC50) PTA) it was 8.59 µg/mL (≈ 32.8 µM); with Cowpox virus (Brighton), 5.64 µg/mL (≈ 21.5 µM); in data set [7] (setting [15]) it was 0.05 µg/mL (≈ 0.191 µM); in [7] (setting [16]), 0.08 µg/mL (≈ 0.305 µM). For the same molecule, the EC50 in [8] worked out at 0.58 µg/mL (≈ 2.21 µM). Moreover, the CC50 in the data set “in vitro [2]” was over 50 µg/mL; in “in vitro [5]” it was 58.4 µg/mL (≈ 223 µM); in the data set “in vitro [6]”, 36.4 µg/mL (≈ 139 µM). Moreover, in [4], the “selectivity index SV40 PML-1 strain EK” value was 8. In [4], the “selectivity index SV40 PML-2 strain DAR” value stood at 7. Besides, the “selectivity index SV40 strain A2895” value in [4] is 8. In addition, in the data set with murine polyomavirus, the “selectivity index 2PTA2” value was 13. The “selectivity index LID-1” value with murine polyomavirus worked out at 7. The “selectivity index MN/RDE Toronto” value with murine polyomavirus is given as 17. Further, the “selectivity index PTA” value in the data set on murine polyomavirus was 7.
Take `CCCCCCCCCCCCCCCCCCOP1(=O)CO[C@@H](Cn2cnc(N)nc2=O)CO1` (stereo partly drawn) [Compound 15, octadecyl ester of 1-{[(5S)-2-hydroxy-2-oxido-1,4,2-dioxaphosphinan-5-yl]methyl}-5-azacytosine]: the values for the EC50 in [1] (setting [9]), in data set [1] (setting [10]) and in data set [7] (setting [16]) were 0.0037 µg/mL (≈ 0.00719 µM), 0.0014 µg/mL (≈ 0.00272 µM) and 0.063 µg/mL (≈ 0.122 µM), respectively. Further, the CC50 in the data set “in vitro [2]” was over 100 µg/mL.
On to `Nc1nc2c(ncn2COCCO)c(=O)[nH]1` [Acyclovir, reference compound], for which the EC50 in [3] and in data set [8] was 0.032 µg/mL (≈ 0.142 µM) throughout.
For `Nc1cnn(C[C@@H](CO)OCP(=O)(O)O)c(=O)n1` [HPMP-6-azaC analogue, (S)-1-[3-hydroxy-2-(phosphonomethoxy)propyl]-6-azacytosine], the EC50 was 30 µg/mL (≈ 107 µM) in data set [1] (setting [9]); 37.3 µg/mL (≈ 133 µM) in [1] (setting [10]); at least 63.8 µg/mL with Orf virus (NZ2); at least 79.3 µg/mL in the data set with Vaccinia virus (setting [11]); over 100 µg/mL in the data set on Vaccinia virus (setting [12]); at least 81.6 µg/mL in the data set with Vaccinia virus (setting [13]). Further, the EC50 is over 100 µg/mL in the data set with Vaccinia virus (setting [14]); over 100 µg/mL in the data set with Cowpox virus (Brighton); 18.4 µg/mL (≈ 65.7 µM) in [7] (setting [15]); 38.2 µg/mL (≈ 136 µM) in data set [7] (setting [16]); 42 µg/mL (≈ 150 µM) in [7] (read-out: EC50 VZV YS strain (HEL cells)); 17 µg/mL (≈ 60.7 µM) in [7] (read-out: EC50 VZV YS-R strain (HEL cells)). The molecule further displayed a CC50 in “in vitro [2]” of over 50 µg/mL.
